The values that follow are results of earlier work, collected in US5070187A, “Pharmacologically effective antagonists of arginine-vasopressin” (priority 1989, dated 1991).

For this data set the following is noted: in vivo.

For [8-arginine]-vasopressin, the “urinary clearance relative to that occurring elsewhere in the body” value was “less than 5%”.
